These results are taken from article PMC10321442 (Preventive Nutrition and Food Science, 2023).

The target in the test is α-amylase (Aspergillus oryzae, UniProt P0C1B3). As to the kind of experiment: amylose hydrolysis inhibition at […], peroxidase-glucose oxidase readout. The format is biochemical. The settings on record: read-out: % inhibition at 0.50 mM.

For `COc1cc(/C=C/C(=O)O[C@H]2CC[C@]34C[C@]35CC[C@]3(C)[C@@H]([C@H](C)CCC=C(C)C)CC[C@@]3(C)[C@@H]5CC[C@H]4C2(C)C)ccc1O` [Cycloartenyl ferulate], the inhibition (commonly the relative decrease from the control value, in per cent) at 500 µM came out at 12.7 ± 1.11%.
